Like-named read-outs stand apart in the source and are kept apart here.

As a reminder, the EC50 is the concentration giving half of the maximal effect. The term IC50 denotes the concentration that inhibits the measured activity by half.

For series [1], the system named is Human renal cortical epithelial cells. Put plainly: Primary cell cytotoxicity, MTS assay. Type of series: cell-based. As to conditions: 24 hrs or 72 hrs exposure, DAS181 various concentrations, 0.2% thimerosol, 1 mM CdCl2. An excerpt:
(§1) Primary cryopreserved human renal cells (Proximal Tubule Epethelial and Cortical Epethelial cells) were thawed, plated, and propagated according to Cambrex’s recommended protocol. Both renal cell lines were thawed and plated at a seeding density of 2500 cells/cm^2 with Renal Epethelial Basal Medium (REBM) supplemented with Cambrex REGM SingleQuots® (Cambrex CC-4127); which includes recombinant human epidermal growth factor, insulin, GA-1000, 0.5% Fetal Bovine Serum, hydrocortisone, transferrin, epinephrine, and triiodothyronine (T3). The cells were allowed to adhere and equilibrate for 24 hours at 37°C with 5% CO2. […] All the renal cells were further subcultured and seeded into 10 tissue culture-coated 24 well plates per cell line at a seeding density of 2.5x10^3 cells/cm^2. Once the cells reached approximately 70% confluency the 24 well plates were used in cytotoxicity experiments using the REBM supplemented with the REGM SingleQuots®.
(§2) On Day 0 the cell media supernatants were initially collected for baseline controls, before adding fresh media supplemented with either PBS, DAS181 (indicated concentrations), or thimerosal (0.2%) or CdCl^2 (1mM) to serve as positive controls for cytotoxicity. All treatment groups were done in triplicate. Treatments were left on for either 24 hrs or 72 hrs. Subsequently, for the 24 hr exposure conditions fresh media without test article was added to all the wells every 24 hours on days 1-3 (24-72 hours post-treatment); a subset of the wells were used for MTS assay each day. For the 72 hr exposure conditions the media was only changed at 72 hrs, immediately prior to MTS assay. Renal cell media interfered with Lactate Dehydrogenase (LDH) and Alkaline Phosphatase (ALP) assays so these were not performed.
(§3) At each endpoint (24, 48, or 72 hrs) the old media was first replaced with fresh warm media (500uL/well) and the samples were then tested for cell viability using the CellTiter 96® Aqueous Non-Radioactive Cell Proliferation Assay (MTS) kit (Promega, Madison, WI). […] 100μL of each sample was then added to a 96 well plate and read for absorbance at 490 nm. A 1:5 dilution of MTS solution in growth media alone was used as the background. For data analysis, background values were subtracted from all sample values. Values were then normalized using the vehicle control as 100%. Each sample was compared to the vehicle control, via ANOVA with Bonferroni post-test, to determine if there was a statistically significant change in cell viability.

Series [2] deals with Human renal proximal tubule cells. Put plainly: Primary cell cytotoxicity, MTS assay. The conditions noted are these: 24 hrs or 72 hrs exposure, DAS181 various concentrations, 0.2% thimerosol, 1 mM CdCl2. The format is cell-based.
Text: as §1, §2, §3
For orientation: Tetrazolium assays rely on reduction of a dye to a coloured formazan, in cell work by metabolically active cells.

In another series the test system is A/St.Louis/746/09. Type of series: cell-based, IFV A (H1N1).
For series [3], the target named is NA enzymatic activity of A/St.Louis/790/09 (Influenza A virus, UniProt D0FH54). Put plainly: Chemiluminescent neuraminidase activity inhibition (NI) assay. The format is biochemical, IFV A (H1N1). As to conditions: for R/S: NI assay; for IC50: mean of triplicate analysis. As for the experimental part: (§4) The chemiluminescent neuraminidase activity inhibition (NI) assay was conducted using a commercially available kit, NA-Star (Applied Biosystems, Foster City, CA) as previously described. Oseltamivir carboxylate and zanamivir were used at 10 half-log dilutions (0.03 to 1000 nM). Values shown represent mean of triplicate analysis.

In series [4] the target is NA enzymatic activity of A/St.Louis/775/09 (Influenza A virus, UniProt D0FH53). The description is as above. Type of series: biochemical, IFV A (H1N1). The conditions noted are these: for R/S: NI assay; for IC50: mean of triplicate analysis. As for the experimental part:
as §4

For series [5], the target named is NA enzymatic activity of A/Hawaii/21/2007 (Influenza A virus (H1N1), UniProt B1AGI9). The series is described as above. The format is biochemical, IFV A (H1N1). As to conditions: for R/S: A/Hawaii/21/2007, NI assay. As for the experimental part: as §4
Series [6] addresses NA enzymatic activity of A/St.Louis/630/09 (Influenza A virus, UniProt D0FH48). The description is as above. Type of series: biochemical, IFV A (H1N1). The conditions noted are these: for R/S: NI assay; for IC50: mean of triplicate analysis. As for the experimental part: as §4
For series [7], the target named is NA enzymatic activity of A/St.Louis/539/09 (Influenza A virus, UniProt D0FH47). The description is as above. The format is biochemical, IFV A (H1N1). As to conditions: for R/S: NI assay; for IC50: mean of triplicate analysis. As for the experimental part:
as §4

Series [8] deals with NA enzymatic activity of A/St.Louis/764/09 (Influenza A virus, UniProt D0FH52). Described as above. The format is biochemical, IFV A (H1N1). The conditions noted are these: for R/S: NI assay; for IC50: mean of triplicate analysis. As for the experimental part: as §4
Series [9] has as its target NA enzymatic activity of A/St.Louis/690/09 (Influenza A virus, UniProt D0FH49). The series is described as above. Type of series: biochemical, IFV A (H1N1). As to conditions: for R/S: NI assay; for IC50: mean of triplicate analysis. As for the experimental part: as §4
Series [10] deals with NA enzymatic activity of A/St.Louis/746/09 (Influenza A virus, UniProt D0FH50). The description is as above. The format is biochemical, IFV A (H1N1). As to conditions: for R/S: NI assay; for IC50: mean of triplicate analysis. As for the experimental part:
as §4

The target of series [11] is NA enzymatic activity of A/St.Louis/792/09 (Influenza A virus, UniProt D0FH55). Described as above. Type of series: biochemical, IFV A (H1N1). The conditions noted are these: for R/S: NI assay; for IC50: mean of triplicate analysis. As for the experimental part:
as §4

Another series concerns A/HongKong/2637/04. The format is cell-based, IFV A (H1N1).
A further series concerns A/St.Louis/790/09. Type of series: cell-based, IFV A (H1N1).
A further series has as its system A/NewJersey/15/07. The format is cell-based, IFV A (H1N1).
The test system of the next series is A/St.Louis/630/09. Type of series: cell-based, IFV A (H1N1).
In another series the test system is A/St.Louis/764/09. The format is cell-based, IFV A (H1N1).
The subject of another series is A/St.Louis/690/09. The format is cell-based, IFV A (H1N1).
For the next series, the system named is A/HongKong/2765/04. Type of series: cell-based, IFV A (H1N1).
The next series relates to A/St.Louis/539/09. Type of series: cell-based, IFV A (H1N1).
The target of series [12] is NA enzymatic activity of A/Georgia/17/2006 WT (Influenza A virus (H1N1), UniProt A7UPL3). In words: Chemiluminescent neuraminidase activity inhibition (NI) assay. The format is biochemical. As to conditions: for IC50: A/Georgia/17/2006 WT reference virus, mean of triplicate analysis; for R/S: A/Georgia/17/2006 WT, NI assay. As for the experimental part:
as §4

A further series deals with A/St.Louis/758/09. The format is cell-based, IFV A (H1N1).
A further series relates to A/St.Louis/792/09. Type of series: cell-based, IFV A (H1N1).
In a further series the test system is A/St.Louis/775/09. Type of series: cell-based, IFV A (H1N1).
For another series, the system named is A/Hawaii/21/07. Type of series: cell-based, IFV A (H1N1).

Take `[Cl][Cd][Cl]` [CdCl2, cadmium chloride]: the “Cell viability (MTS) vs PBS” value in series [1] and in series [2] was “significant reduction in cell viability” throughout.
`CCC(CC)O[C@@H]1C=C(C(=O)O)C[C@H](N)[C@H]1NC(C)=O` [oseltamivir, oseltamivir carboxylate]: the concentration giving a half-maximal response (EC50) in the series with A/St.Louis/746/09 (read-out: EC50) was above 400 µM; with A/HongKong/2637/04 (read-out: EC50) it was 3.27 ± 1.32 µM; in the series with A/St.Louis/790/09 (read-out: EC50), above 304 µM; in the series with A/NewJersey/15/07 (read-out: EC50), above 400 µM; in the series with A/St.Louis/630/09 (read-out: EC50) it was above 400 µM; with A/St.Louis/764/09 (read-out: EC50), above 400 µM. The half-maximal effective concentration (EC50) in the series with A/St.Louis/690/09 (read-out: EC50) is above 400 µM; with A/HongKong/2765/04 (read-out: EC50) it was 2.92 ± 1 µM; in the series with A/St.Louis/539/09 (read-out: EC50) it was above 400 µM; in the series on A/St.Louis/758/09 (read-out: EC50) it was above 400 µM; in the series with A/St.Louis/792/09 (read-out: EC50), above 400 µM; with A/St.Louis/775/09 (read-out: EC50), above 320 µM. In addition, the EC50 in the series with A/Hawaii/21/07 (read-out: EC50) is above 285 µM. The R/S entry in [3], in series [4], in series [5], in series [6], in [7] and in [8] was “R” each time. For the same compound, the R/S result was “R” in [9], “R” in series [10], “R” in [11] and “S” in series [12]. Further, the IC50 is 0.0878 µM in series [3]; 0.0919 µM in series [4]; 0.11 µM in [5] (A/Hawaii/21/2007 reference virus, mean of triplicate analysis); 0.224 µM in [6]; 0.0849 µM in series [7]; 0.103 µM in series [8]. Besides, the IC50 came to 0.178 µM in series [9], 0.0899 µM in [10], 0.0915 µM in series [11] and 0.00037 µM in series [12].
With `C[CH2][Hg][S]c1ccccc1C(=O)[O-].[Na+]` [thimerosol], the “Cell viability (MTS) vs PBS” value in [1] and in [2] was “significant reduction in cell viability” in each case.
Consider `CC(=O)N[C@H]1[C@H]([C@H](O)[C@H](O)CO)OC(C(=O)O)=C[C@@H]1N=C(N)N` [zanamivir], for which the EC50 with A/St.Louis/746/09 (read-out: EC50) was 1.96 ± 0.42 µM; with A/St.Louis/746/09 (read-out: EC50 Zanamivir), 1.96 ± 0.42 µM; in the series on A/HongKong/2637/04 (read-out: EC50) it was 1.82 ± 0.46 µM; in the series on A/HongKong/2637/04 (read-out: EC50 Zanamivir) it was 1.82 ± 0.46 µM; with A/St.Louis/790/09 (read-out: EC50), 3.12 ± 1.83 µM; with A/St.Louis/790/09 (read-out: EC50 Zanamivir) it was 3.12 ± 1.83 µM. The EC50 with A/NewJersey/15/07 (read-out: EC50) was 7.02 ± 2.46 µM; in the series on A/NewJersey/15/07 (read-out: EC50 Zanamivir), 7.02 ± 2.46 µM; in the series on A/St.Louis/630/09 (read-out: EC50), 62.1 ± 34.8 µM; with A/St.Louis/630/09 (read-out: EC50 Zanamivir), 62.1 ± 34.8 µM; in the series on A/St.Louis/764/09 (read-out: EC50), above 273 µM; in the series on A/St.Louis/764/09 (read-out: EC50 Zanamivir), above 273 µM. The EC50 in the series with A/St.Louis/690/09 (read-out: EC50) is above 182 µM; in the series with A/St.Louis/690/09 (read-out: EC50 Zanamivir), above 182 µM; with A/HongKong/2765/04 (read-out: EC50), 4.17 ± 0.53 µM; in the series with A/HongKong/2765/04 (read-out: EC50 Zanamivir), 4.17 ± 0.53 µM; in the series with A/St.Louis/539/09 (read-out: EC50), above 332 µM; with A/St.Louis/539/09 (read-out: EC50 Zanamivir), above 332 µM. The EC50 was 7.06 ± 2.84 µM with A/St.Louis/758/09 (read-out: EC50); 7.06 ± 2.84 µM in the series with A/St.Louis/758/09 (read-out: EC50 Zanamivir); above 156 µM with A/St.Louis/792/09 (read-out: EC50); above 156 µM in the series with A/St.Louis/792/09 (read-out: EC50 Zanamivir); 1.2 ± 0.36 µM in the series with A/St.Louis/775/09 (read-out: EC50); 1.2 ± 0.36 µM with A/St.Louis/775/09 (read-out: EC50 Zanamivir). The EC50 with A/Hawaii/21/07 (read-out: EC50) and with A/Hawaii/21/07 (read-out: EC50 Zanamivir) was 45 ± 22.5 µM each time. The R/S entry in series [3], in [4], in series [5], in series [6], in series [7] and in [8] was “S” in each case. Moreover, the R/S entry in series [9], in [10], in series [11] and in [12] was “S” each time. Besides, the concentration for half-maximal inhibition (IC50) came out at 0.00029 µM in [3]; 0.00033 µM in series [4]; 0.00048 µM in [6]; 0.00028 µM in [7]; 0.0003 µM in series [8]; 0.00044 µM in [9]. Further, the 50% inhibitory concentration (IC50) turned out to be 0.0003 µM in series [10], 0.00028 µM in [11] and 0.00044 µM in series [12].
